Source: patent US20120121508A1, “RADIOLABELED CGRP ANTAGONISTS” (Merck Sharp & Dohme Corp., priority 2009, published 2012)
Values joined by “and” are separate entries in the source; they are usually repeats but may differ in a detail not shown here. Identical values can stand only once.

Experiments:
[1] = target: T1, human AMY3 receptor (CTR/RAMP3) (Homo sapiens, UniProt O60896+P30988); assay: Amylin 3 receptor binding
T1 sequence (P30988 25-474): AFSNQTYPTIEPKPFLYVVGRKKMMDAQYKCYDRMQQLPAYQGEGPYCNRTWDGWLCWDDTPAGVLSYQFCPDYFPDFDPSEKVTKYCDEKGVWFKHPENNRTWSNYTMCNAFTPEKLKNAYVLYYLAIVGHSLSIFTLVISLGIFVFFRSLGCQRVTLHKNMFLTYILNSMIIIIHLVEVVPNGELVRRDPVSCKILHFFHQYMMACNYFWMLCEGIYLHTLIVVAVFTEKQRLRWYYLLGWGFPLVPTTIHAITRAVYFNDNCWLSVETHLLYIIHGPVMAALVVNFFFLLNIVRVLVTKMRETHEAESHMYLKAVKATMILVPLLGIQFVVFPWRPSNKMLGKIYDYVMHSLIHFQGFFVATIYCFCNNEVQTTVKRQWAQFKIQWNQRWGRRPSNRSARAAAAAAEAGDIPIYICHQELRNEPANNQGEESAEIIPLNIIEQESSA
T1 sequence (O60896 24-148): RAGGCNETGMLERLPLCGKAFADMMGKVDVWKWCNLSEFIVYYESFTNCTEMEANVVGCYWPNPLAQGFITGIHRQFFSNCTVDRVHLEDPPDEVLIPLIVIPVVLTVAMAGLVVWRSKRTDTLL
Procedure: (§1) The compound of Example 1 was evaluated against the related amylin 1 (AMY1; CTR/RAMP1) and amylin 3 (AMY3; CTR/RAMP3) receptors. […] Although the compound of Example 1 binds with high affinity to the related AMY1 receptor, this is not anticipated to negatively impact the utility of this molecule as a suitable PET tracer. […] Since the methods used to quantify CGRP receptor occupancy rely primarily on the cerebellar region, the affinity of the compound of Example 1 for AMY1 receptor should not interfere with the use of the PET tracer to accurately determine CGRP receptor occupancy.

[2] = test system: CGRP receptor; assay: PET CGRP receptor occupancy study in rhesus monkey brain; assay type: in vivo; conditions: IV bolus plus constant infusion, Hill equation fit, ±SE
Procedure: Baseline PET scans in rhesus monkey have confirmed the uptake and expected regional distribution of the PET tracer of [^11C]-Example 1 in the brain. […] In vivo occupancy studies were carried out with the compound of Example 1 to examine the utility of the PET tracer of [^11C]-Example 1 to establish a drug plasma level/CGRP receptor occupancy relationship. To establish steady plasma levels of drug, the compound of Example 1 was administered as an IV bolus plus constant infusion starting 60 minutes before the PET tracer of [^11C]-Example 1 injection; drug infusion was continued for the duration of the scan. Dynamic PET studies were acquired for 120-min following the PET tracer of [^11C]-Example 1 IV bolus administration. CGRP receptor availability was estimated using data-driven methods to describe the PET tracer of [^11C]-Example 1 plasma-brain kinetics. For each study, the PET tracer of [^11C]-Example 1 plasma concentration was obtained from the measurement of total radioactivity in arterial plasma with correction for the fraction of intact tracer as determined by HPLC analysis.
The absence of a reference region (devoid of CGRP receptor) requires the application of tracer kinetic modeling techniques using the PET tracer of [^11C]-Example 1 arterial plasma concentration in order to accurately quantify CGRP receptor occupancy in rhesus monkey. […]

[3] = Octanol/water partition coefficient (Log P); assay type: physicochemical; conditions: octanol / phosphate buffer pH 7.4, LC-MS/MS
Procedure: (§2) The octanol/water partition coefficient (Log P) of the compound of Example 1 was determined by partitioning the compound between octanol and phosphate buffer at pH 7.4 and measuring the concentration of the compound in each layer by LC-MS/MS. […] The compound of Example 1 was tested in the receptor binding and functional cell-based assays carried out in the presence and absence of human serum.

[4] = target: T2, human CGRP receptor (CL receptor/RAMP1) (Homo sapiens, UniProt O60894+Q16602); assay: Recombinant receptor binding assay vs [^125I]CGRP
T2 construct: expressed in transfected cells
Procedure: RECOMBINANT RECEPTOR: Human CL receptor (Genbank accession number L76380) was subcloned into the expression vector pIREShyg2 (BD Biosciences Clontech) as a 5′NheI and 3′ PmeI fragment. Human RAMP1 (Genbank accession number AJ001014) was subcloned into the expression vector pIRESpuro2 (BD Biosciences Clontech) as a 5′NheI and 3′NotI fragment. HEK 293 cells (human embryonic kidney cells; ATCC #CRL-1573) were cultured in DMEM with 4.5 g/L glucose, 1 mM sodium pyruvate and 2 mM glutamine supplemented with 10% fetal bovine serum (FBS), 100 units/mL penicillin and 100 μg/mL streptomycin, and maintained at 37° C. and 95% humidity. Cells were subcultured by treatment with 0.25% trypsin with 0.1% EDTA in HBSS. Stable cell line generation was accomplished by co-transfecting 10 μg of DNA with 30 μg Lipofectamine 2000 (Invitrogen) in 75 cm^2 flasks. CL receptor and RAMP1 expression constructs were co-transfected in equal amounts. Twenty-four hours after transfection the cells were diluted and selective medium (growth medium+300 μg/mL hygromycin and 1 μg/mL puromycin) was added the following day. […]
(§3) The octanol/water partition coefficient (Log P) of the compound of Example 1 was determined by partitioning the compound between octanol and phosphate buffer at pH 7.4 and measuring the concentration of the compound in each layer by LC-MS/MS. […]

[5] = target: T2, human CGRP receptor (CL receptor/RAMP1); assay: Recombinant receptor cAMP functional assay; assay type: cell-based; conditions: in the presence of 50% human serum
Procedure: RECOMBINANT RECEPTOR: Human CL receptor (Genbank accession number L76380) was subcloned into the expression vector pIREShyg2 (BD Biosciences Clontech) as a 5′NheI and 3′ PmeI fragment. Human RAMP1 (Genbank accession number AJ001014) was subcloned into the expression vector pIRESpuro2 (BD Biosciences Clontech) as a 5′NheI and 3′NotI fragment. HEK 293 cells (human embryonic kidney cells; ATCC #CRL-1573) were cultured in DMEM with 4.5 g/L glucose, 1 mM sodium pyruvate and 2 mM glutamine supplemented with 10% fetal bovine serum (FBS), 100 units/mL penicillin and 100 μg/mL streptomycin, and maintained at 37° C. and 95% humidity. Cells were subcultured by treatment with 0.25% trypsin with 0.1% EDTA in HBSS. […]
RECOMBINANT RECEPTOR FUNCTIONAL ASSAY: Cells were plated in complete growth medium at 85,000 cells/well in 96-well poly-D-lysine coated plates (Corning) and cultured for ˜19 h before assay. […] Dose response curves were plotted and IC50 values determined from a 4-parameter logistic fit as defined by the equation y=((a−d)/(1+(x/c)^b)+d, where y=response, x=dose, a=max response, d=min response, c=inflection point and b=slope.
as §3

[6] = Passive permeability (Papp); assay type: in vitro ADME; conditions: pig, LLC-PK1, read-out: average apparent permeability coefficient (Papp)
Procedure: (§4) The bidirectional transport of the compound of Example 1 was evaluated across mono-layers of LLC-PK1 cells over-expressing human P-glycoprotein (Ohe et al., 2003).

[7] = test system: African green monkey P-gp; assay: Bidirectional transport, African green monkey P-gp; assay type: in vitro ADME
[8] = test system: rat P-gp; assay: Bidirectional transport, rat P-gp; assay type: in vitro ADME
Procedure: [The source words this procedure for another species and reports this species under the same test.] as §4

[9] = target: human AMY1 receptor (CTR/RAMP1) (Homo sapiens, UniProt O60894+P30988); assay: Amylin 1 receptor binding
Procedure: as §1

[10] = target: adrenomedullin 2 receptor, CLR-RAMP3 (Homo sapiens, UniProt O60896+Q16602); assay: Adrenomedullin 2 receptor binding (selectivity)
Procedure: as §2

[11] = target: T3, human P-glycoprotein (Homo sapiens, UniProt P08183); assay: Bidirectional transport across LLC-PK1 monolayers, human P-gp; assay type: in vitro ADME
T3 construct: expressed in transfected cells; host or cells: LLC-PK1
Procedure: as §4

[12] = target: T4, human P-glycoprotein (P-gp) (Homo sapiens, UniProt P08183); assay: as above; assay type: in vitro ADME; conditions: LLC-PK1, human P-gp, read-out: B−A/A−B ratio
T4 construct: expressed in transfected cells; host or cells: LLC-PK1
Procedure: as §4

T4 sequence (P08183 whole entry): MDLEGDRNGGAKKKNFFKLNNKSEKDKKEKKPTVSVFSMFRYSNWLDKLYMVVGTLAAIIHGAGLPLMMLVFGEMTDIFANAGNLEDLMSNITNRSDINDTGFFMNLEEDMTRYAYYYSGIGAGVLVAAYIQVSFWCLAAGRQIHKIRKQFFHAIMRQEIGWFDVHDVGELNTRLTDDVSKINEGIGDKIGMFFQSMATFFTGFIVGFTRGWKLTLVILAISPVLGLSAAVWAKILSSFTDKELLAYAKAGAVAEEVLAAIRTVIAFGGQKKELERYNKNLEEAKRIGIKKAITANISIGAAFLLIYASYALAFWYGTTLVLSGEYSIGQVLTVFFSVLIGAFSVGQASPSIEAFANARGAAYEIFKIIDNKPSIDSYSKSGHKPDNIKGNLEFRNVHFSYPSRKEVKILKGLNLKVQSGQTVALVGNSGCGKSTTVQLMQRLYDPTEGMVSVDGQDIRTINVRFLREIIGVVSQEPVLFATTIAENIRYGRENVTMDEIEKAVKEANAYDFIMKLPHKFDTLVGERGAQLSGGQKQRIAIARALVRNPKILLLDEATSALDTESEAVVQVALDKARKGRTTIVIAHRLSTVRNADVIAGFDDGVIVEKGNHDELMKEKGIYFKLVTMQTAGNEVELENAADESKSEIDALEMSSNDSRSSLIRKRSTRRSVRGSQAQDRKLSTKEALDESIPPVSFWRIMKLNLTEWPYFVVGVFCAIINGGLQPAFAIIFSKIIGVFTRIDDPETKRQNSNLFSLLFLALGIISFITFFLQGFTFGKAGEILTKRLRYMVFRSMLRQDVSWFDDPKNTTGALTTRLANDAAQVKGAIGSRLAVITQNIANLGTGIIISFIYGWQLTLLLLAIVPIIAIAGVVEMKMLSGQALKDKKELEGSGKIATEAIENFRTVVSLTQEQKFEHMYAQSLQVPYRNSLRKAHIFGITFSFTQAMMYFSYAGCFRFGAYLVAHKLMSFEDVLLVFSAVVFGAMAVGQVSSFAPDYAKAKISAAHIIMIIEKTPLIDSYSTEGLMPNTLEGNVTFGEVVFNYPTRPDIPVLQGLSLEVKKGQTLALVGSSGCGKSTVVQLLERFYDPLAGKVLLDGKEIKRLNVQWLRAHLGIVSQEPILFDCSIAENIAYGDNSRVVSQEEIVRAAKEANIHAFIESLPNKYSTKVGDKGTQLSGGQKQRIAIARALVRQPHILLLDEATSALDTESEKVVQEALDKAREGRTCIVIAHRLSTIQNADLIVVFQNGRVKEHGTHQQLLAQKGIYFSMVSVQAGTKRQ
T3 sequence (P08183 whole entry): as above
T2 sequence (Q16602 23-461): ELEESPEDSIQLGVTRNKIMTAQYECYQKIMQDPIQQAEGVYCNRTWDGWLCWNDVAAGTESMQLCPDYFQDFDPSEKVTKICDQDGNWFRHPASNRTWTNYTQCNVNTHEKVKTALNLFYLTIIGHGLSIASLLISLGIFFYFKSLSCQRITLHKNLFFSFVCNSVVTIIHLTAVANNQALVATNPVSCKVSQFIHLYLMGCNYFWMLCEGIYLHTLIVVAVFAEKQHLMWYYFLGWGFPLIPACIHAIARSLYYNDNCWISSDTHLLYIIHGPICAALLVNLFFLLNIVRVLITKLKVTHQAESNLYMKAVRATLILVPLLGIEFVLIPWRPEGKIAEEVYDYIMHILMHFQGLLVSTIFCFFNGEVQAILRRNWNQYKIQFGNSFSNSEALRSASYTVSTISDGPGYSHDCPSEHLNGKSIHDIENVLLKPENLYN
T2 sequence (O60894 27-148): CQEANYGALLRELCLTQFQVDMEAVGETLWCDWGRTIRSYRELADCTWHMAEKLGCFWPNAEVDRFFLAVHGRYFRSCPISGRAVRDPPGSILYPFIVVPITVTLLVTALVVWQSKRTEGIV
Chain of human AMY1 receptor (CTR/RAMP1) (O60894 27-148, one chain of several): as the sequence (O60894 27-148) above
Chain of adrenomedullin 2 receptor, CLR-RAMP3 (Q16602 23-461, one chain of several): as the sequence (Q16602 23-461) above

With `CN1C[C@@](C)(c2cc(F)cc(F)c2)N(CC(=O)Nc2ccc3c(c2)C[C@@]2(C3)C(=O)Nc3ncccc32)C(=O)C12CCCC2` [Example 1, 2-[(8R)-8-(3,5-Difluorophenyl)-6,8-dimethyl-10-oxo-6,9-diazaspiro[4.5]dec-9-yl]-N-[(2R)-2′-oxo-1,1′,2′,3-tetrahydrospiro[indene-2,3′-pyrrolo[2,3-b]pyridin]-5-yl]acetamide] the Ki [1] was 212 nM, the “Occ50: plasma level for 50% CGRP receptor occupancy” value [2] was ~11 nM and 11 ± 3 nM and the logP [3] was 3.38. The Ki [4] was 0.039 nM, the IC50 [5] was 0.21 nM and the Papp [6] was 26 ×10⁻⁶ cm/s. The “P-gp substrate status” value ([7]; African green monkey P-gp, 1, 0.5 and 0.1 μM) was “weak substrate”, the efflux ratio at 0.1 μM ([7]; LLC-PK1, African green monkey P-gp, 0.1 μM, read-out: B−A/A−B ratio) was 5.4 and the efflux ratio at 0.5 μM ([7]; LLC-PK1, African green monkey P-gp, 0.5 μM, read-out: B−A/A−B ratio) was 4.1. For the same compound, the efflux ratio at 1 μM ([7]; LLC-PK1, African green monkey P-gp, 1 μM, read-out: B−A/A−B ratio) was 3.9, the “P-gp substrate status” value ([8]; 5 μM) was “borderline substrate” and the efflux ratio at 5 μM ([8]; LLC-PK1, read-out: B−A/A−B ratio) was 3.1. The Ki [9] was 0.6 nM, the Ki [10] was 211 nM and the “P-gp substrate status” value ([11]; human P-gp, 5 μM) was “not a substrate”. The “P-gp substrate status” value ([11]; human P-gp, 1, 0.5 and 0.1 μM) was “weak substrate”, the efflux ratio at 0.1 μM ([12]; 0.1 μM) was 3.5 and the efflux ratio at 0.5 μM ([12]; 0.5 μM) was 2.9. For the same compound, the efflux ratio at 1 μM ([12]; 1 μM) was 3 and the efflux ratio at 5 μM ([12]; 5 μM) was 1.7.
